PMC6514978, “Synthesis, Antibacterial Activities, Mode of Action and Acute Toxicity Studies of New Oxazolidinone-Fluoroquinolone Hybrids” (Molecules, 2019)
Converted amounts (≈) assume the structure as drawn.

What was measured:
[1] = test system: H. parasuis (34) clinical isolates; assay: Susceptibility of clinical isolates (MIC); format: cell-based, Haemophilus parasuis; details: for MIC50 / MIC90: Glaesserella parasuis; for MIC50 / MIC90 / MIC Range: H. parasuis, 34 clinical isolates; for MIC50: read-out: MIC50; for MIC90: read-out: MIC90; for Cumulative % of strains inhibited at MIC / No. of strains inhibited at MIC: H. parasuis (34)
Method: (§1) Susceptibility testing of oxazolidinone-fluoroquinolone hybrids against various bacteria was performed by the broth microdilution method as outlined by the Clinical and Laboratory Standards Institute (CLSI). Three types of media, including cation-adjusted Mueller Hinton broth, Haemophilus Test Medium and cation-adjusted Mueller Hinton broth that contained 3%–5% lysed horse blood, were used to culture the corresponding bacteria. […] A final inoculum of 5 × 10^5 CFU/mL was used and plates were read after incubation for 16–24 h at 35 °C. […] Standard quality control strains (ATCC) were included throughout. Each determination was repeated in triplicate.

[2] = test system: protein synthesis (E. coli extract-based cell-free protein expression system); assay: In vitro transcription/translation assay (S30 T7 cell-free system, Renilla luciferase); format: biochemical; details: for IC50: E. coli S30 T7 cell-free transcription/translation, 1 h, 37 °C, read-out: IC50 Inhib. of Protein Synthesis
Method: The influence of hybrids OBP-4 and OBP-5 against protein synthesis was confirmed by the S30 T7 High-Yield Protein Expression System (Promega Co., Ltd.). The S30 T7 High-Yield Protein Expression System is an E. coli extract-based cell-free protein expression system, which can effectively transcribe and translate DNA fragments with a T7 promoter. The reaction system containing 1 μg plasmid DNA, 20 μL S30 Premix Plus and 18 μL T7 S30 Extract with or without compounds was incubated for 1 h at 37 °C with a rotational speed of 250 rpm, and terminated by cooling in ice for 5 min in a 96-well white multi-well plate. Then, 1.25 μL of the translation reaction mixture was added to 48.75 μL of Renilla Luciferase Assay Lysis Buffer, and mixed with 50 μL of Renilla Luciferase Assay Reagent (cat no. E2810; Promega). Renilla luciferase activity was measured on EnSpire® Multimode Plate Reader (PerkinElmer, Waltham, MA, USA). […] LZD was used as a positive control.

VRE (13B330) = assay: MIC, broth microdilution (CLSI), clinical isolate; format: cell-based, vancomycin-resistant enterococcus; details: Enterococcus
Text: (§2) 6 standard strains and 3 clinical isolates were used to the preliminary evaluation of in vitro antibacterial activities of oxazolidinone-fluoroquinolone hybrids. For the further evaluation of hybrids OBP-4 and OBP-5, 263 clinical isolates including S. aureus (46), S. haemolyticus(32), S. epidermidis (10), E. faecalis (72), E. faecium (47), S. pneumoniae (13), H. parasuis (34), S. suis (9), and 8 resistant strains including MRSA, MRSE, CIP-resistant S. aureus and S. haemolyticus, VAN and quinolone-resistant S. pneumoniae, LZD-resistant E. faecalis, LZD/VAN and quinolone-resistant E. faecium were collected and tested.
(§3) Susceptibility testing of oxazolidinone-fluoroquinolone hybrids against various bacteria was performed by the broth microdilution method as outlined by the Clinical and Laboratory Standards Institute (CLSI). Three types of media, including cation-adjusted Mueller Hinton broth, Haemophilus Test Medium and cation-adjusted Mueller Hinton broth that contained 3%–5% lysed horse blood, were used to culture the corresponding bacteria. All compounds including comparator drugs were dissolved in an appropriate solvent at a concentration of 2.048 mg/mL and then serially diluted two-fold to provide the required concentrations. A final inoculum of 5 × 10^5 CFU/mL was used and plates were read after incubation for 16–24 h at 35 °C. […] Standard quality control strains (ATCC) were included throughout. Each determination was repeated in triplicate.

[3] = test system: E. faecium (47) clinical isolates; assay: Susceptibility of clinical isolates (MIC); format: cell-based, Enterococcus faecium; details: for MIC Range / MIC50 / MIC90: E. faecium, 47 clinical isolates; for MIC50 / MIC90: Enterococcus faecium; for MIC50: read-out: MIC50; for MIC90: read-out: MIC90; for Cumulative % of strains inhibited at MIC / No. of strains inhibited at MIC: E. faecium (47)
Method: as §1

[4] = test system: S. pneumoniae (ATCC49619); assay: MIC, broth microdilution (CLSI), standard strain; format: cell-based; details: Streptococcus pneumoniae
Outline: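 CLSI broth microdilution in cation-adjusted Mueller Hinton broth, Haemophilus Test Medium, or MHB with 3–5% lysed horse blood as appropriate. Two-fold dilutions, inoculum 5 × 10^5 CFU/mL, read after 16–24 h at 35 °C; triplicate determinations with QC strains.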

[5] = test system: LZD-resistant E. faecalis; assay: microbe, parasite or virus in culture; format: cell-based; details: Enterococcus faecalis
Method: (§4) 6 standard strains and 3 clinical isolates were used to the preliminary evaluation of in vitro antibacterial activities of oxazolidinone-fluoroquinolone hybrids.
as §1

MRSE = assay: MIC against drug-resistant strain; format: cell-based, S. epidermidis; details: Staphylococcus epidermidis, read-out: MIC
Method: as §4, §1

Gram-positive isolates = assay: MIC summary, clinical isolates; format: cell-based; details: for MIC90: Gram-positive clinical isolates, read-out: MIC90 values for Gram-positive isolates (span over species)
Text: as §2, §3

E. coli DNA gyrase = target: T1, E. coli DNA gyrase (Escherichia coli, UniProt P0AES4+P0AES6); assay: DNA gyrase supercoiling assay; format: biochemical; details: supercoiling of relaxed pBR322, 37 °C, 30 min
T1 construct: purchased Inspiralis Co., Ltd; host or cells: E. coli
T1 sequence (P0AES4 whole entry, one chain of several): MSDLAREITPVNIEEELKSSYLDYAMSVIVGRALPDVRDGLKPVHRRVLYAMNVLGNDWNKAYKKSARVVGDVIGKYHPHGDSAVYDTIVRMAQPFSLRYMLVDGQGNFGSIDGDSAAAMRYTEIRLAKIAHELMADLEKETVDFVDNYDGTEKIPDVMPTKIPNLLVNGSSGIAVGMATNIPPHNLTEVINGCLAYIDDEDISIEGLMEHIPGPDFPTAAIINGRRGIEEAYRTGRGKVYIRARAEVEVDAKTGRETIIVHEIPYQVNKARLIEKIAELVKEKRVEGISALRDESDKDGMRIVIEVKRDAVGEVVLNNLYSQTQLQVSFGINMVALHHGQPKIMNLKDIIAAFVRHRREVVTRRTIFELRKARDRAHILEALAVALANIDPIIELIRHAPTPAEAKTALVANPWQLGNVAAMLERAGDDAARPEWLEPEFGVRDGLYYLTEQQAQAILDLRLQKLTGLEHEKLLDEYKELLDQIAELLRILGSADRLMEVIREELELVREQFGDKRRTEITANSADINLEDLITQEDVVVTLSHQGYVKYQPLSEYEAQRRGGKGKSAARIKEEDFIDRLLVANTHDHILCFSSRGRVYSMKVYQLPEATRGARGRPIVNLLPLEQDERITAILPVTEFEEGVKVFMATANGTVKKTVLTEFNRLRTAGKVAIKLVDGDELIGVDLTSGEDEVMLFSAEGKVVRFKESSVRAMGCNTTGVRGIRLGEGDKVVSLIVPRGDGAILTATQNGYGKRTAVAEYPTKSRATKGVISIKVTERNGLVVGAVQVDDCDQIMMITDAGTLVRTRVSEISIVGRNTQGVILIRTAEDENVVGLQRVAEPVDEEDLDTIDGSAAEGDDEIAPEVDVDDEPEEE
Method: The E. coli DNA Gyrase Supercoiling Assay Kit (Inspiralis Co., Ltd.) was used to investigate the inhibition activities of hybrids OBP-4 and OBP-5 against DNA gyrase. DNA gyrase is prepared from E. coli. One unit of DNA gyrase can convert 0.5 μg of relaxed pBR322 to the supercoiled forms in 30 min. […] The reaction was terminated by adding 30 μL of STEB and 30 μL of chloroform/isoamyl alcohol (v:v, 24:1), and then the products were resolved by gel electrophoresis on 1% (w/v) agarose gel at 80 V for 2 h in the absence of ethidium bromide. The gels were stained with ethidium bromide (1 μg/mL in distilled water) for 15 min, and destained (5–10 min) in distilled water. DNA bands were visualized with UV light in Bio-Rad® Chemidoc xrs and analyzed by using Quantity One software (Version 4.6, Bio-Rad).

[6] = E. faecium clinical isolates, CLSI criteria

Row | SMILES | MIC50 [1] | MIC90 [1] | IC50 [2] | MIC (VRE (13B330)) | MIC Range [3] | MIC50 [3] | MIC90 [3] | MIC [4] | MIC [5] | MIC (MRSE) | Cumulative % of strains inhibited at MIC ([1]; MIC 0.5 µg/mL) | No. of strains inhibited at MIC ([1]; MIC 0.5 µg/mL) | Cumulative % of strains inhibited at MIC ([1]; MIC 1 µg/mL) | No. of strains inhibited at MIC ([1]; MIC 1 µg/mL) | Cumulative % of strains inhibited at MIC ([1]; MIC 2 µg/mL) | No. of strains inhibited at MIC ([1]; MIC 2 µg/mL) | Cumulative % of strains inhibited at MIC ([1]; MIC 4 µg/mL) | No. of strains inhibited at MIC ([1]; MIC 4 µg/mL) | Cumulative % of strains inhibited at MIC ([1]; MIC […]) | No. of strains inhibited at MIC ([1]; MIC […]) | other results
1 | CC(=O)NC[C@H]1CN(c2ccc(N3CCOCC3)c(F)c2)C(=O)O1 [LZD, linezolid, reference compound] | 16 µg/mL (≈ 47.4 µM) | > 32 µg/mL | 5 µM | 2 µg/mL (≈ 5.93 µM) | 0.5 to 16 µg/mL | 2 µg/mL (≈ 5.93 µM) | 4 µg/mL (≈ 11.9 µM) | 1 µg/mL (≈ 2.96 µM) | 8 µg/mL (≈ 23.7 µM) | 0.25 µg/mL (≈ 0.741 µM) |  |  |  |  |  |  |  |  |  |  | CLSI %R (resistant) [3, 6]: 13.8%; CLSI %S (susceptible) [3, 6]: 82.8%
2 | C[C@H]1CCc2c(N3CCC(O)(COc4ccc(N5C[C@H](CO)OC5=O)cc4F)CC3)c(F)cc3c(=O)c(C(=O)O)cn1c23 [OBP-4] | 1 µg/mL (≈ 1.67 µM) | 4 µg/mL (≈ 6.67 µM) | 5 µM | 0.25 µg/mL (≈ 0.417 µM) | 0.25 to 2 µg/mL |  |  | 0.031 µg/mL (≈ 0.0517 µM) | 1 µg/mL (≈ 1.67 µM) | ≤ 0.0625 µg/mL | 35.3% | 5 | 61.8% | 9 | 79.4% | 6 | 100.0% | 7 | 20.6% | 3 | Cumulative % of strains inhibited at MIC ([1]; MIC ≤[…]): 11.8%; No. of strains inhibited at MIC ([1]; MIC ≤[…]): 4; MIC Range [1]: ≤0.0625 to 4 µg/mL; MIC90 (Gram-positive isolates): 0.125 to 0.25 µg/mL (≈ 0.208 to 0.417 µM); Cumulative % of strains inhibited at MIC ([3]; MIC 0.5 µg/mL): 95.7%; No. of strains inhibited at MIC ([3]; MIC 0.5 µg/mL): 37; Cumulative % of strains inhibited at MIC ([3]; MIC 1 µg/mL): 97.9%; No. of strains inhibited at MIC ([3]; MIC 1 µg/mL): 1; Cumulative % of strains inhibited at MIC ([3]; MIC 2 µg/mL): 100.0%; No. of strains inhibited at MIC ([3]; MIC 2 µg/mL): 1; No. of strains inhibited at MIC ([3]; MIC […]): 8; fold higher activity than comparator agents ([3]; E. faecium clinical isolates): 16- to 128 fold; IC50 (E. coli DNA gyrase): 1 to 5 µM
3 | CC1Sc2c(C(=O)O)c(=O)c3cc(F)c(N4CCC(O)(COc5ccc(N6C[C@H](CO)OC6=O)cc5F)CC4)cc3n21 (some centres unmarked) [OBP-5] | 0.5 µg/mL (≈ 0.828 µM) | 2 µg/mL (≈ 3.31 µM) | 2 µM | 0.5 µg/mL (≈ 0.828 µM) | ≤0.0625 to 1 µg/mL | 0.25 µg/mL (≈ 0.414 µM) | 0.25 µg/mL (≈ 0.414 µM) | 0.062 µg/mL (≈ 0.103 µM) | 0.25 µg/mL (≈ 0.414 µM) | ≤ 0.0625 µg/mL | 47.1% | 6 | 67.6% | 7 | 97.1% | 10 | 100.0% | 1 | 29.4% | 4 | Cumulative % of strains inhibited at MIC ([1]; MIC 0.125 µg/mL): 17.6%; No. of strains inhibited at MIC ([1]; MIC 0.125 µg/mL): 1; Cumulative % of strains inhibited at MIC ([1]; MIC ≤[…]): 14.7%; No. of strains inhibited at MIC ([1]; MIC ≤[…]): 5; MIC Range [1]: ≤0.0625 to 4 µg/mL; protein synthesis inhibition, fold greater than LZD ([2]; relative to IC50 of LZD): 2.5 fold; MIC90 (Gram-positive isolates): 0.0625 to 0.25 µg/mL (≈ 0.104 to 0.414 µM); fold greater activity than OBP-4, overall (Gram-positive isolates; tested clinical isolates): 2 fold; Cumulative % of strains inhibited at MIC ([3]; MIC 0.125 µg/mL): 21.3%; No. of strains inhibited at MIC ([3]; MIC 0.125 µg/mL): 7; Cumulative % of strains inhibited at MIC ([3]; MIC 0.5 µg/mL): 97.9%; No. of strains inhibited at MIC ([3]; MIC 0.5 µg/mL): 3; Cumulative % of strains inhibited at MIC ([3]; MIC 1 µg/mL): 100.0%; No. of strains inhibited at MIC ([3]; MIC 1 µg/mL): 1; Cumulative % of strains inhibited at MIC ([3]; MIC […]): 91.5%; No. of strains inhibited at MIC ([3]; MIC […]): 33; Cumulative % of strains inhibited at MIC ([3]; MIC ≤[…]): 6.4%; No. of strains inhibited at MIC ([3]; MIC ≤[…]): 3; fold higher activity than comparator agents ([3]; E. faecium clinical isolates): 16- to 128 fold; IC50 (E. coli DNA gyrase): 20 µM
